Assay results taken from ChEMBL document CHEMBL5584354, “Impact of Conjugation of the Reactive Oxygen Species (ROS)-Generating Catalytic Moiety with Membrane-Active Antimicrobial Peptoids: Promoting Multitarget Mechanism and Enhancing Selectivity” (J Med Chem, 2024).
Converted amounts (≈) assume the structure as drawn. Non-standard residues stand in square brackets, D forms with d. Residues, ends and D or L forms follow the SMILES beside them. *: point of attachment. X2 = C[C@@H](c1ccccc1)N(C[C@H](N)C(=O)NCC(=O)N[C@@H](Cc1c[nH]cn1)C(N)=O)*; Gly(N(CH2)2(3-indolyl)) = O=C(O)CNCCc1c[nH]c2ccccc12; Nspe = C[C@H](NCC(=O)O)c1ccccc1; Nphe = O=C(O)CNCc1ccccc1; Nlys = NCCCCNCC(=O)O

Assays:
[1] = system: Escherichia coli; test: Antibacterial activity against Escherichia coli ATCC 25922 assessed as inhibition of bacterial growth incubated for 24 hrs by broth dilution method; format: functional
[2] = system: Staphylococcus aureus; test: Antibacterial activity against Staphylococcus aureus ATCC 25923 assessed as inhibition of bacterial growth incubated for 24 hrs by broth dilution method; format: functional
[3] = Hemolytic activity in male Sprague-Dawley rat erythrocytes at 25 uM incubated for 1 hr by absorbance based method relative to control; format: toxicity, cell-based, Erythrocyte; settings: read-out: Activity
[4] = Hemolytic activity in male Sprague-Dawley rat erythrocytes at 50 uM incubated for 1 hr by absorbance based method relative to control; format: toxicity, cell-based, Erythrocyte; settings: read-out: Activity
[5] = Hemolytic activity in male Sprague-Dawley rat erythrocytes at 100 uM incubated for 1 hr by absorbance based method relative to control; format: toxicity, cell-based, Erythrocyte; settings: read-out: Activity
[6] = system: Erythrocyte; test: Hemolytic activity in male Sprague-Dawley rat erythrocytes assessed as concentration required for 10% hemolysis incubated for 1 hr by absorbance based method; format: toxicity, cell-based
[7] = Hemolytic activity in male Sprague-Dawley rat erythrocytes assessed as concentration required for 50% hemolysis incubated for 1 hr by absorbance based method; format: toxicity, cell-based, Erythrocyte
[8] = Selectivity index, ratio of HC10 for hemolytic activity in male Sprague-Dawley rat erythrocytes to MIC for antibacterial activity against Escherichia coli ATCC 25922; format: toxicity; settings: read-out: Selectivity Index

C[C@@H](c1ccccc1)N(CC(N)=O)C(=O)CN(CCCCN)C(=O)CN(C(=O)CN(C(=O)CN(CCCCN)C(=O)CN(C(=O)CN(C(=O)CN(CCCCN)C(=O)CN(C(=O)CN(C(=O)CNCCCCN)[C@@H](C)c1ccccc1)[C@@H](C)c1ccccc1)[C@@H](C)c1ccccc1)[C@@H](C)c1ccccc1)[C@@H](C)c1ccccc1)[C@@H](C)c1ccccc1 (H-[Nlys][Nspe][Nspe][Nlys][Nspe][Nspe][Nlys][Nspe][Nspe][Nlys][Nspe]-NH2)
MIC [1]: 6.3 µM (≈ 10.4 µg/mL) | MIC [2]: 1.6 µM (≈ 2.65 µg/mL) | hemolysis at 1 h, 25 µM [3]: 40.3% | hemolysis at 1 h, 50 µM [4]: 97.6% | hemolysis at 1 h, 100 µM [5]: 96.5% | HC10 [6]: 9.64 µM | HC50 at 1 h [7]: 28.3 µM | selectivity ratio [8]: 1.5

C[C@@H](c1ccccc1)N(CC(N)=O)C(=O)CN(CCCCN)C(=O)CN(C(=O)CN(C(=O)CN(CCCCN)C(=O)CN(C(=O)CN(C(=O)CN(CCCCN)C(=O)CN(C(=O)CN(C(=O)CN(CCCCN)C(=O)[C@H](Cc1c[nH]cn1)NC(=O)CNC(=O)CN)[C@@H](C)c1ccccc1)[C@@H](C)c1ccccc1)[C@@H](C)c1ccccc1)[C@@H](C)c1ccccc1)[C@@H](C)c1ccccc1)[C@@H](C)c1ccccc1 (H-GGH[Nlys][Nspe][Nspe][Nlys][Nspe][Nspe][Nlys][Nspe][Nspe][Nlys][Nspe]-NH2)
MIC [1]: 12.5 µM (≈ 23.9 µg/mL) | MIC [2]: 6.3 µM (≈ 12 µg/mL) | hemolysis at 1 h, 25 µM [3]: 7.95% | hemolysis at 1 h, 50 µM [4]: 32% | hemolysis at 1 h, 100 µM [5]: 61.6% | HC10 [6]: 22.9 µM | HC50 at 1 h [7]: 81.6 µM | selectivity ratio [8]: 1.8

C[C@@H](c1ccccc1)N(CC(=O)N(CCCCN)CC(=O)N(CC(=O)N(CC(=O)N(CCCCN)CC(=O)N(CC(=O)N(C[C@H](N)C(=O)NCC(=O)N[C@@H](Cc1c[nH]cn1)C(N)=O)[C@@H](C)c1ccccc1)[C@@H](C)c1ccccc1)[C@@H](C)c1ccccc1)[C@@H](C)c1ccccc1)C(=O)CN(C(=O)CN(CCCCN)C(=O)CN(CCc1c[nH]c2ccccc12)C(=O)CN(CCc1c[nH]c2ccccc12)C(=O)CNCCCCN)[C@@H](C)c1ccccc1 (H-[Nlys][Gly(N(CH2)2(3-indolyl))][Gly(N(CH2)2(3-indolyl))][Nlys][Nspe][Nspe][Nlys][Nspe][Nspe][Nlys][Nspe]-X2)
MIC [1]: 25 µM (≈ 53 µg/mL) | MIC [2]: 3.1 µM (≈ 6.57 µg/mL) | hemolysis at 1 h, 25 µM [3]: 8.35% | hemolysis at 1 h, 50 µM [4]: 14% | hemolysis at 1 h, 100 µM [5]: 23.8% | HC10 [6]: 31.9 µM | HC50 at 1 h [7]: > 100 µM | selectivity ratio [8]: 1.2

C[C@@H](c1ccccc1)N(CC(N)=O)C(=O)CN(C(=O)CN(CCCCN)C(=O)CN(Cc1ccccc1)C(=O)CN(Cc1ccccc1)C(=O)CN(CCCCN)C(=O)CN(Cc1ccccc1)C(=O)CN(Cc1ccccc1)C(=O)CN(CCCCN)C(=O)CN(CCc1c[nH]c2ccccc12)C(=O)CN(CCc1c[nH]c2ccccc12)C(=O)CN(CCCCN)C(=O)[C@H](Cc1c[nH]cn1)NC(=O)CNC(=O)CN)[C@@H](C)c1ccccc1 (H-GGH[Nlys][Gly(N(CH2)2(3-indolyl))][Gly(N(CH2)2(3-indolyl))][Nlys][Nphe][Nphe][Nlys][Nphe][Nphe][Nlys][Nspe][Nspe]-NH2)
MIC [1]: 12.5 µM (≈ 26.2 µg/mL) | MIC [2]: 1.6 µM (≈ 3.35 µg/mL) | hemolysis at 1 h, 25 µM [3]: 13.8% | hemolysis at 1 h, 50 µM [4]: 25.5% | hemolysis at 1 h, 100 µM [5]: 40.2% | HC10 [6]: 16.3 µM | HC50 at 1 h [7]: > 100 µM | selectivity ratio [8]: 1.3

C[C@@H](c1ccccc1)N(CC(=O)N(CCCCN)CC(=O)N(CC(=O)N(CC(=O)N(CCCCN)CC(=O)N(CC(=O)N(CC(=O)N(CCCCN)CC(=O)N(CCc1c[nH]c2ccccc12)CC(=O)N(CCc1c[nH]c2ccccc12)CC(N)=O)Cc1ccccc1)Cc1ccccc1)Cc1ccccc1)Cc1ccccc1)C(=O)CN(Cc1ccccc1)C(=O)CN(CCCCN)C(=O)[C@H](Cc1c[nH]cn1)NC(=O)CNC(=O)CN (H-GGH[Nlys][Nphe][Nspe][Nlys][Nphe][Nphe][Nlys][Nphe][Nphe][Nlys][Gly(N(CH2)2(3-indolyl))][Gly(N(CH2)2(3-indolyl))]-NH2)
MIC [1]: 12.5 µM (≈ 26 µg/mL) | MIC [2]: 3.1 µM (≈ 6.44 µg/mL) | hemolysis at 1 h, 25 µM [3]: 12.7% | hemolysis at 1 h, 50 µM [4]: 23.9% | hemolysis at 1 h, 100 µM [5]: 40.6% | HC10 [6]: 20.6 µM | HC50 at 1 h [7]: > 100 µM | selectivity ratio [8]: 1.6

C[C@@H](c1ccccc1)N(CC(=O)N(CCCCN)CC(=O)N(CC(=O)N(CC(=O)N(CCCCN)CC(=O)N(CC(=O)N(CC(=O)N(CCCCN)CC(=O)N(CC(=O)N(CC(N)=O)Cc1ccccc1)Cc1ccccc1)Cc1ccccc1)Cc1ccccc1)Cc1ccccc1)Cc1ccccc1)C(=O)CN(Cc1ccccc1)C(=O)CNCCCCN (H-[Nlys][Nphe][Nspe][Nlys][Nphe][Nphe][Nlys][Nphe][Nphe][Nlys][Nphe][Nphe]-NH2)
MIC [1]: 12.5 µM (≈ 21.5 µg/mL) | MIC [2]: 6.3 µM (≈ 10.8 µg/mL) | hemolysis at 1 h, 25 µM [3]: 0.21% | hemolysis at 1 h, 50 µM [4]: 3.75% | hemolysis at 1 h, 100 µM [5]: 13.7% | HC10 [6]: 81.3 µM | HC50 at 1 h [7]: > 100 µM | selectivity ratio [8]: 6.5

C[C@@H](c1ccccc1)N(CC(N)=O)C(=O)CN(CCCCN)C(=O)CN(Cc1ccccc1)C(=O)CN(Cc1ccccc1)C(=O)CN(CCCCN)C(=O)CN(C(=O)CN(C(=O)CN(CCCCN)C(=O)CN(Cc1ccccc1)C(=O)CN(Cc1ccccc1)C(=O)CN(CCCCN)C(=O)CNC(=O)[C@H](Cc1c[nH]cn1)NC(=O)CNC(=O)CN)[C@@H](C)c1ccccc1)[C@@H](C)c1ccccc1 (H-GGHG[Nlys][Nphe][Nphe][Nlys][Nspe][Nspe][Nlys][Nphe][Nphe][Nlys][Nspe]-NH2)
MIC [1]: 25 µM (≈ 47.8 µg/mL) | MIC [2]: 25 µM (≈ 47.8 µg/mL) | hemolysis at 1 h, 25 µM [3]: 0.91% | hemolysis at 1 h, 50 µM [4]: 6.84% | hemolysis at 1 h, 100 µM [5]: 20.8% | HC10 [6]: 58.4 µM | HC50 at 1 h [7]: > 100 µM | selectivity ratio [8]: 2.3

C[C@@H](c1ccccc1)N(CC(=O)N(CCCCN)CC(=O)N(CC(=O)N(CC(=O)N(CCCCN)CC(=O)N(CC(=O)N(CC(N)=O)Cc1ccccc1)Cc1ccccc1)[C@@H](C)c1ccccc1)[C@@H](C)c1ccccc1)C(=O)CN(C(=O)CN(CCCCN)C(=O)CN(Cc1ccccc1)C(=O)CN(Cc1ccccc1)C(=O)CN(CCCCN)C(=O)[C@H](Cc1c[nH]cn1)NC(=O)CNC(=O)CN)[C@@H](C)c1ccccc1 (H-GGH[Nlys][Nphe][Nphe][Nlys][Nspe][Nspe][Nlys][Nspe][Nspe][Nlys][Nphe][Nphe]-NH2)
MIC [1]: 12.5 µM (≈ 25.2 µg/mL) | MIC [2]: 25 µM (≈ 50.4 µg/mL) | hemolysis at 1 h, 25 µM [3]: 3.01% | hemolysis at 1 h, 50 µM [4]: 8.68% | hemolysis at 1 h, 100 µM [5]: 18.4% | HC10 [6]: 56.5 µM | HC50 at 1 h [7]: > 100 µM | selectivity ratio [8]: 4.5

C[C@@H](c1ccccc1)N(CC(N)=O)C(=O)CN(CCCCN)C(=O)CN(C(=O)CN(C(=O)CN(CCCCN)C(=O)CN(C(=O)CN(C(=O)CN(CCCCN)C(=O)CN(C(=O)CN(C(=O)CN(CCCCN)C(=O)CNC(=O)[C@H](Cc1c[nH]cn1)NC(=O)CNC(=O)CN)[C@@H](C)c1ccccc1)[C@@H](C)c1ccccc1)[C@@H](C)c1ccccc1)[C@@H](C)c1ccccc1)[C@@H](C)c1ccccc1)[C@@H](C)c1ccccc1 (H-GGHG[Nlys][Nspe][Nspe][Nlys][Nspe][Nspe][Nlys][Nspe][Nspe][Nlys][Nspe]-NH2)
MIC [1]: 12.5 µM (≈ 24.6 µg/mL) | MIC [2]: 6.3 µM (≈ 12.4 µg/mL) | hemolysis at 1 h, 25 µM [3]: 6.5% | hemolysis at 1 h, 50 µM [4]: 22.4% | hemolysis at 1 h, 100 µM [5]: 49.8% | HC10 [6]: 27.7 µM | HC50 at 1 h [7]: 100 µM | selectivity ratio [8]: 2.2

C[C@@H](c1ccccc1)N(CC(N)=O)C(=O)CN(C(=O)CN(CCCCN)C(=O)CN(C(=O)CN(C(=O)CN(CCCCN)C(=O)CN(C(=O)CN(C(=O)CN(CCCCN)C(=O)CN(CCc1c[nH]c2ccccc12)C(=O)CN(CCc1c[nH]c2ccccc12)C(=O)CNCCCCN)[C@@H](C)c1ccccc1)[C@@H](C)c1ccccc1)[C@@H](C)c1ccccc1)[C@@H](C)c1ccccc1)[C@@H](C)c1ccccc1
MIC [1]: 3.1 µM (≈ 5.88 µg/mL) | MIC [2]: < 0.8 µM | hemolysis at 1 h, 25 µM [3]: 33% | hemolysis at 1 h, 50 µM [4]: 55.3% | hemolysis at 1 h, 100 µM [5]: 73.9% | HC10 [6]: 7.9 µM | HC50 at 1 h [7]: 63.6 µM | selectivity ratio [8]: 2.5

C[C@@H](c1ccccc1)N(CC(=O)N(CC(=O)N(CCCCN)CC(=O)N(CC(=O)N(CC(=O)N(CCCCN)CC(=O)N(CC(=O)N(CC(=O)N(CCCCN)CC(=O)N(CC(=O)N(CC(N)=O)Cc1ccccc1)Cc1ccccc1)Cc1ccccc1)Cc1ccccc1)Cc1ccccc1)Cc1ccccc1)Cc1ccccc1)C(=O)CN(CCCCN)C(=O)CNC(=O)[C@H](Cc1c[nH]cn1)NC(=O)CNC(=O)CN (H-GGHG[Nlys][Nspe][Nphe][Nlys][Nphe][Nphe][Nlys][Nphe][Nphe][Nlys][Nphe][Nphe]-NH2)
MIC [1]: 25 µM (≈ 50.7 µg/mL) | MIC [2]: > 25 µM | hemolysis at 1 h, 25 µM [3]: -0.43% | hemolysis at 1 h, 50 µM [4]: 0.18% | hemolysis at 1 h, 100 µM [5]: 1.36% | HC10 [6]: > 100 µM | HC50 at 1 h [7]: > 100 µM
